Molecular target: T1, YAP (Yes 1–associated protein), purified (Homo sapiens, UniProt P46937)
T1 construct: gene YAP1; purified YAP protein
Experiment: microscale thermophoresis
Assay type: binding
Details: read-out: dissociation constant

T1 sequence (P46937 whole entry): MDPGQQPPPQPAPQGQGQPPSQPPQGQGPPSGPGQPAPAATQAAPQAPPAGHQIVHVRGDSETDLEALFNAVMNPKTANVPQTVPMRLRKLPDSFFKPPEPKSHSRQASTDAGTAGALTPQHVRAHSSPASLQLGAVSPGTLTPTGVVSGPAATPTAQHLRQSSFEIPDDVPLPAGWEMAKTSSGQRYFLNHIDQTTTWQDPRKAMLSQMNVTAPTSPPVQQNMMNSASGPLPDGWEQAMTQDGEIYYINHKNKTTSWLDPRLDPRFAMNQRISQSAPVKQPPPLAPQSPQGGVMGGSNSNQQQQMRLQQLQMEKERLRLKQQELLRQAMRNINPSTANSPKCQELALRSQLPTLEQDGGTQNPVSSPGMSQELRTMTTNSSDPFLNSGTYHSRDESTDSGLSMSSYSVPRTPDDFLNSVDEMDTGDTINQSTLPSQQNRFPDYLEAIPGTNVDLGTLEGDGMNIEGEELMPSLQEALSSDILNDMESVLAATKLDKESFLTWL

CCCCCCCCCCCCC/C=C/[C@@H](O)[C@@H](N)COP(=O)(O)O [sphingosine 1-phosphate]
Kd: 13 µM

— article PMC11870743, “Endothelial OX40 activation facilitates tumor cell escape from T cell surveillance through S1P/YAP-mediated angiogenesis” (The Journal of Clinical Investigation, 2025)
